From US20220000110A1, “COMPOSITIONS COMPRISING PYRIDINE CARBOXYLATE HERBICIDES AND CELLULOSE BIOSYNTHESIS INHIBITOR HERBICIDES” (priority 2018, published 2022)

Experiments:
Experiment in all cases: Greenhouse postemergence herbicidal effect, visual injury after 20-22 d
Assay type in all cases: in vivo
[1] = system: Viola tricolor (wild pansy); settings: VIOTR
Excerpt: (§1) Greenhouse Trial Methodology—Evaluation of Postemergence Herbicidal Effect
(§2) Seeds of the desired test plant species were planted in a 90:10% v/v (volume/volume) mixture of PRO-MIX® BX (Premier Tech Horticulture, Quakertown, Pa., USA) and PROFILE® GREENS GRADE™ (Profile Products LLC, Buffalo Grove, Ill., USA) planting mixture, which typically has a pH of 5.2 to 6.2 and an organic matter content of at least 50 percent, in plastic pots with a surface area of 103.2 square centimeters (cm^2). In some aspects, to help ensure good germination and healthy plants, a fungicide treatment and/or other chemical or physical treatment was applied. The plants were grown for 7-36 days (d) in a greenhouse with an approximate 14-hour (h) photoperiod which was maintained at about 23° C. during the day and 22° C. during the night. Nutrients and water were added on a regular basis and supplemental lighting was provided with overhead metal halide 1000-Watt lamps as necessary. The plants were employed for testing when they reached the second or third true leaf stage.
(§3) Emulsifiable concentrates of each of each pyridine carboxylate herbicide (Compound A or Compound B) were prepared at 100 grams acid equivalent per liter (g ae/L). The emulsifiable concentrates also included a safener, at 120 grams active ingredient per liter (g ai/L). An aliquot of each emulsifiable concentrate was placed in a 25 mL glass vial and diluted with an aqueous mixture of 1.25% (v/v) ACTIROB® B esterified rapeseed oil (Bayer Crop Science, Research Triangle Park, N.C., USA) or MSO® Concentrate with LECI-TECH® methylated soybean oil (Loveland Products, Loveland, Colo., USA) to obtain concentrated stock solutions at the highest application rate for each herbicide, based upon a 12 milliliter (mL) application volume at a rate of 187 liters per hectare (L/ha). The concentrated stock solutions were further diluted with an aqueous mixture of 1.25% v/v ACTIROB® B or MSO® Concentrate with LECI-TECH® to obtain stock solutions at reduced application rates for each herbicide. Spray solutions of the herbicide combinations (Compound A or Compound B plus the CBI herbicide) were prepared by adding weighed amounts or aliquots of the CBI herbicide to the stock solutions of Compound A or Compound B to form 12-mL spray solutions in two-way combinations.
(§4) The spray solutions were applied to the plant material with an overhead Mandel track sprayer equipped with 8002E nozzles calibrated to deliver 187 L/ha over an application area of 0.503 square meters (m^2) at a spray height of 18 inches (43 centimeters (cm)) above the average plant canopy. Control plants were sprayed in the same manner with the solvent blank. All pyridine carboxylate herbicide (component a) application rates are given as “g ae/ha” and all CBI herbicide (component b) application rates are given as “g ai/ha.”
(§5) The treated plants and control plants were placed in a greenhouse as described above and watered by sub-irrigation to prevent wash-off of the test compounds. After 20-22 d, the condition of the test plants as compared with that of the control plants was determined visually and scored on a scale of 0 to 100 percent where 0 corresponds to no injury and 100 corresponds to complete kill.

[2] = system: Sorghum vulgare (grain sorghum); settings: Table 1, SORVU
Excerpt: as §1, §2, §3, §4, §5

[3] = system: Oryza sativa (common rice); settings: Table 1, ORYSA
Excerpt: as §1, §2, §3, §4, §5

[4] = system: Polygonum convolvulus (wild buckwheat); settings: POLCO
Excerpt: as §1, §2, §3, §4, §5

[5] = system: Ipomoea hederacea (ivyleaf morningglory); settings: IPOHE
Excerpt: as §1, §2, §3, §4, §5

[6] = system: Chenopodium album L. (common lambsquarters); settings: CHEAL
Excerpt: as §1, §2, §3, §4, §5

[7] = system: Setaria faberi (giant foxtail); settings: SETFA
Excerpt: as §1, §2, §3, §4, §5

[8] = system: Helianthus annuus (common sunflower); settings: Table 1, HELAN
Excerpt: as §1, §2, §3, §4, §5

[9] = system: Rumex obtusifolius (broad-leaf dock); settings: Table 1, RUMOB
Excerpt: as §1, §2, §3, §4, §5

[10] = system: Digitaria sanguinalis (large crabgrass); settings: DIGSA
Excerpt: as §1, §2, §3, §4, §5

[11] = system: Echinochloa crus-galli (barnyard grass); settings: ECHCG
Excerpt: as §1, §2, §3, §4, §5

[12] = system: Cirsium arvense (Canadian thistle); settings: CIRAR
Excerpt: as §1, §2, §3, §4, §5

[13] = system: Stellaria media (chickweed); settings: Table 1, STEME
Excerpt: as §1, §2, §3, §4, §5

## N#CCOC(=O)c1nc(-c2ccc3cc[nH]c3c2F)c(F)c(N)c1Cl [Compound A, cyanomethyl 4-amino-3-chloro-5-fluoro-6-(7-fluoro-1H-indol-6-yl)pyridine-2-carboxylate]
[1]; Table 1, Compound A 7.5 g/ha
  Obs % visual injury: 38%
[1]; Table 1, Compound A 10 g/ha
  Obs % visual injury: 15%
[1]; Table 2, Compound A 7.5 g/ha
  Obs % visual injury: 10%
[1]; Table 2, Compound A 10 g/ha
  Obs % visual injury: 18%
[2]; Compound A 7.5 g/ha
  Obs % visual injury: 0%
[2]; Compound A 10 g/ha
  Obs % visual injury: 0%
[3]; Compound A 7.5 g/ha
  Obs % visual injury: 3%
[3]; Compound A 10 g/ha
  Obs % visual injury: 8%
[4]; Table 1, Compound A 7.5 g/ha
  Obs % visual injury: 83%
[4]; Table 1, Compound A 10 g/ha
  Obs % visual injury: 93%
[4]; Table 2, Compound A 7.5 g/ha
  Obs % visual injury: 75%
[4]; Table 2, Compound A 10 g/ha
  Obs % visual injury: 70%
[4]; Table 3, Compound A 7.5 g/ha
  Obs % visual injury: 63%
[4]; Table 3, Compound A 10 g/ha
  Obs % visual injury: 60%
[4]; Table 3, Compound A 15 g/ha
  Obs % visual injury: 63%
[4]; Table 4, Compound A 7.5 g/ha
  Obs % visual injury: 63%
[4]; Table 4, Compound A 10 g/ha
  Obs % visual injury: 60%
[4]; Table 4, Compound A 15 g/ha
  Obs % visual injury: 63%
[5]; Table 1, Compound A 7.5 g/ha
  Obs % visual injury: 20%
[5]; Table 1, Compound A 10 g/ha
  Obs % visual injury: 25%
[5]; Table 2, Compound A 7.5 g/ha
  Obs % visual injury: 3%
[5]; Table 2, Compound A 10 g/ha
  Obs % visual injury: 8%
[6]; Table 1, Compound A 7.5 g/ha
  Obs % visual injury: 98%
[6]; Table 1, Compound A 10 g/ha
  Obs % visual injury: 93%
[6]; Table 3, Compound A 7.5 g/ha
  Obs % visual injury: 70%
[6]; Table 3, Compound A 10 g/ha
  Obs % visual injury: 78%
[6]; Table 3, Compound A 15 g/ha
  Obs % visual injury: 83%
[6]; Table 4, Compound A 7.5 g/ha
  Obs % visual injury: 70%
[6]; Table 4, Compound A 10 g/ha
  Obs % visual injury: 78%
[6]; Table 4, Compound A 15 g/ha
  Obs % visual injury: 83%
[7]; Table 1, Compound A 7.5 g/ha
  Obs % visual injury: 78%
[7]; Table 1, Compound A 10 g/ha
  Obs % visual injury: 80%
[7]; Table 2, Compound A 7.5 g/ha
  Obs % visual injury: 70%
[7]; Table 2, Compound A 10 g/ha
  Obs % visual injury: 70%
[8]; Compound A 7.5 g/ha
  Obs % visual injury: 90%
[8]; Compound A 10 g/ha
  Obs % visual injury: 89%
[9]; Compound A 7.5 g/ha
  Obs % visual injury: 20%
[9]; Compound A 10 g/ha
  Obs % visual injury: 13%
[10]; Table 1, Compound A 7.5 g/ha
  Obs % visual injury: 35%
[10]; Table 1, Compound A 10 g/ha
  Obs % visual injury: 38%
[10]; Table 2, Compound A 7.5 g/ha
  Obs % visual injury: 45%
[10]; Table 2, Compound A 10 g/ha
  Obs % visual injury: 25%
[11]; Table 1, Compound A 7.5 g/ha
  Obs % visual injury: 88%
[11]; Table 1, Compound A 10 g/ha
  Obs % visual injury: 80%
[11]; Table 2, Compound A 7.5 g/ha
  Obs % visual injury: 73%
[11]; Table 2, Compound A 10 g/ha
  Obs % visual injury: 78%
[12]; Table 1, Compound A 7.5 g/ha
  Obs % visual injury: 40%
[12]; Table 1, Compound A 10 g/ha
  Obs % visual injury: 60%
[12]; Table 2, Compound A 7.5 g/ha
  Obs % visual injury: 23%
[12]; Table 2, Compound A 10 g/ha
  Obs % visual injury: 20%
[13]; Compound A 7.5 g/ha
  Obs % visual injury: 89%
[13]; Compound A 10 g/ha
  Obs % visual injury: 90%
